Measurements published in patent US20160067211A1, “PHARMACEUTICAL COMPOSITION” (Eberhard Karls Universitaet Tuebingen Medizinische Fakultaet, priority 2013, published 2016).

Key:
HT-29 colon cancer cells = test: MUH proliferation assay, HT-29; format: cell-based; conditions: rising concentrations 0.1 μM to 100 μM, 48 hours
Protocol: FIG. 6: 6-PN and 8-PN inhibit the growth of MCF-7 and HT-29. (A, B) MUH proliferation assay of HT-29 colon cancer cells and MCF-7 breast cancel cells treated with increasing concentrations of 6-PN and 8-PN (0.1 μM to 100 μM) for 48 hours. Shown are the mean±S.A.; the experiments were performed in quadruplicates.
The cells were seeded in triplicates in 96-well plates at a density of 2,500 cells per well in 50 μl medium (5×10^4 cells per milliliter). After 24 hours, the medium was replaced by medium containing 6-PN, 8-PN (dissolved in DMSO), TSA (dissolved in EtOH) or SAHA (dissolved in DMSO) at the concentrations to be tested with or without the addition of the necrosis inhibitor IM-54 at 5 μM (Calbiochem, Darmstadt, Germany). Cells treated with culture medium without or with DMSO served as controls. The assay was started following an incubation of 24 hours. The medium was discarded, each well was washed two times with PBS (without Ca^++ and Mg^++) and 100 μl of a solution containing […] of 4-methyl umbellipheryl heptanoate per ml PBS was added. Plates were incubated at 37° C. for 1 hour and measured in a Fluoroskan II (Lab Systems, Helsinki, Finland) with a […]. The intensity of fluorescence indicates the number of viable cells in the wells. […]

[1] = system: histon protein H3 acetylation in SK-MEL-28 melanoma cells; test: Western blot of acetylated histon H3, SK-MEL-28; format: cell-based, human; conditions: SK-MEL-28, 100 μM, two hours, vs. DMSO control
Protocol: FIG. 4: 6-PN and 8-PN induce a hyper acetylation in SK-MEL-28 melanoma cells. Western blot analysis of acetylated histon complex H3 in cellular lysates of BLM and SK-MEL-28 cells treated with 100 μM 6-PN or 8-PN for 1, 2, 4, 12 and 24 h, or with 100 μM SAHA (as reference HDACi) for 24 h. Equal protein loading was verified by vinculin staining (lower rows). At 24 hours (BLM) and 2 hours (SK-MEL-28) after the PN treatment a prominent up-regulation of ac-H3 is detectable. The protein expression levels were estimated performing a densitometric analysis.
The following antibodies were used: Anti-Vinculin and Anti-Actin (1:5000, Sigma-Aldrich), Anti-Acetyl-Histon H3 (1:5000, Millipore, Billerica, USA), Anti-Caspase-3 (1:1000), Anti-AKT, Anti-pAKT, Anti-ERK, Anti-pERK, […], Anti-p70S6 Kinase, and Anti-pS6 protein (1:1000), all from Cell Signaling, Frankfurt, Germany), Anti-LC3 (1:5000, Sigma-Aldrich).
An incubation of cells with HDACi induces generally a hyperacetylation of histon proteins. Therefore, the acetylation status of the histon protein H3 after treatment with 6-PN or 8-PN was investigated. Corresponding to the HDAC screening results, a direct effect was monitored. […] SAHA was used as control HDACi (at 100 μM, 24 hours treatment).

[2] = system: primary human fibroblasts (FF868); test: MUH proliferation assay, fibroblasts; format: cell-based; conditions: 6-PN, 8-PN 0.1 μM to 100 μM; TSA, SAHA 100 μM
Protocol: (§1) FIG. 5: real time cell monitoring of BLM and SK-MEL-28 melanoma cells treated with 6-PN and 8-PN. (A) BML and SK-MEL-28 cells were treated 24 hours after seeding with different concentrations of 6-PN and 8-PN (20 μM, 50 μM and 100 μM) over a 104 hour time period. The cellular impedance was measured over the entire observation time using the xCELLigence™ SP system and is depicted by the cell index (CI). All CI-values were normalized shortly before the treatment started. […] As a positive control, Triton X-100 0.1% was used to induce cell death. Shown are the mean±SD of three independent experiments, each performed in triplicates (B, C). […] Shown are the mean±SD; the experiments were performed in quadruplicates. (D) The MUH proliferation assay was repeated unter the same treatment conditions on primary human fibroblasts (FF868) and melanocytes (HEM1).
(§2) The cells were seeded in triplicates in 96-well plates at a density of 2,500 cells per well in 50 μl medium (5×10^4 cells per milliliter). After 24 hours, the medium was replaced by medium containing 6-PN, 8-PN (dissolved in DMSO), TSA (dissolved in EtOH) or SAHA (dissolved in DMSO) at the concentrations to be tested with or without the addition of the necrosis inhibitor IM-54 at 5 μM (Calbiochem, Darmstadt, Germany). Cells treated with culture medium without or with DMSO served as controls. The assay was started following an incubation of 24 hours. […] Plates were incubated at 37° C. for 1 hour and measured in a Fluoroskan II (Lab Systems, Helsinki, Finland) with a […]. The intensity of fluorescence indicates the number of viable cells in the wells.
(§3) Next it was asked whether the PNs also influence the proliferation of benign cells. To this end, human fibroblasts (FF) and foreskin melanocytes (HEM1) were treated with the same concentrations of 6-PN and 8-PN, and proliferation was assessed using the proliferation assay as described above.

[3] = system: foreskin melanocytes (HEM1); test: MUH proliferation assay, melanocytes; format: cell-based; conditions: 6-PN, 8-PN at higher concentrations (0.1 μM to 100 μM tested); TSA, SAHA 100 μM
Protocol: as §1, §2, §3

SK-MEL-28 melanoma cells = test: PI/Annexin V staining FACS, SK-MEL-28; format: cell-based, human; conditions: SK-MEL-28, 100 μM; for annexin V positive (apoptotic) cells: DMSO control 2.5%; for PI positive (nectrotic) cells: DMSO control 7.9%
Protocol: (A) Cell cycle FACS analyses of PI stained BLM and SK-MEL-28 melanoma cells. 100 μM of 8-PN-induced a G2 arrest in both cells. (B) FACS analyses of BLM and SK-MEL-28 melanoma cells treated with 100 μM 6-PN or 8-PN and stained for annexin V/PI; staurosporin was used as control for apoptosis induction and DMSO as vehicle control. […] (C) BLM and SK-MEL-28 melanoma cells were treated with 100 μM of PNs; TSA, SAHA and EMSO were used as controls.
To further analyze the possibility of apoptosis induction, an extensive apoptosis assay was performed on SK-MEL-28 melanoma cells 4 hours after treatment with 100 μM 6-PN or 8-PN (FIG. 9). […] This was verified by FACS cell cycle analyses to screen for a possible increase of the sub-G1 fraction of cells (apoptotic cells) or for the induction of a G2 arrest (inhibition of proliferation). […] To further differentiate between the induction of apoptosis and/or necrosis an PI/Annexin V staining of SK-MEL-28 and BLM cells was performed 4 hours and 24 hours after the treatment with 6-PN or 8-PN; 10 μM staurosporin (6 hours treatment) was used as positive control for the induction of apoptosis; DMSO treatment was used as vehicle control. The cells were then analyzed by FACS.

## CC(C)=CCc1c(O)cc(O)c2c1OC(c1ccc(O)cc1)CC2=O (centres unmarked) [8-PN, 5,7-Dihydroxy-2-(4-hydroxy-phenyl)-8-(3-methyl-but-2-enyl)-chroman-4-one]
HT-29 colon cancer cells
  cell proliferation: severe reduction
[1]
  histon complex H3 acetylation: massive increase
[2]
  fibroblast proliferation: hardly affected
[3]
  melanocyte proliferation: markedly decreased
SK-MEL-28 melanoma cells; 4 hours
  annexin V positive (apoptotic) cells: 0.2%
  PI positive (nectrotic) cells: 29.9%
SK-MEL-28 melanoma cells; 24 hours
  annexin V positive (apoptotic) cells: 0.5%
  PI positive (nectrotic) cells: 58.2%
